According to US20020132266A1, “Method for modifying and identifying functional sites in proteins” (priority 1998, published 2002):
{Fluorescein} = fluorescein label

Target: T1, human α-Thrombin (Homo sapiens, UniProt P00734)
T1 construct: the light chain and the heavy chain were separated by reverse phase chromatography; gift from Prof; Bode, MPI Martinsried
Test: CALI experiment: serine-protease activity of thrombin measured with Chromozym TH after laser irradiation
Assay type: biochemical
Settings: 0.38 μM thrombin, 0.76 μM aptamer (1:2); argon ion laser 496 nm, 800 mW, 30 seconds per well; percentage of thrombin activity in a non-irradiated control; Chromozym TH substrate
Experimental: Complexes were formed by mixing 7.6 μM thrombin with the fluorescein-labeled aptamer (1:2 molar ratio) in 50 mM Tris buffer, pH 8.3, 100 mM NaCl, and an incubation time of 30 min on ice in the dark.
Control samples were prepared as described above, either omitting the aptamer, using a non-labeled aptamer or an equal concentration of FITC. Subsequently, the solutions were diluted 20-fold with the same buffer. The final concentrations were 0.38 μM thrombin and 0.76 μM aptamer. The samples were pipetted in 100 μl aliquots into wells of a flat bottom 96-well microtiter plate (Nunc A/S, Roskilde, DK), typically 1.2 ml or 12 wells total per sample. The plate was blocked with 1% BSA in PBS for 1 hour and then washed extensively prior to use.
The serine-protease activity of thrombin was measured using Chromozym TH (Roche Diagnostics GmbH, Mannheim, Germany) as substrate. […] The absorbance increase at 405 nm, due to the cleavage of Chromozym TH into a residual peptide and free […] by thrombin, was followed with the time. The absorbance difference per minute, calculated in the linear range, was used to calculate the thrombin activity in U/ml. […]

Substance: Flu-THR15: fluorescein-labeled, thrombin-specific aptamer, 15-mer oligonucleotide GGTTGGTGTGGTTGG with the fluorescein moiety linked to its 5′ end (DNA, 5' {Fluorescein}, backbone not given here)
- thrombin inactivation upon irradiation (CALI effect): 55%
